Results on ten compounds are retold here after ChEMBL document CHEMBL1201862, “PubChem BioAssay data set” (2004).

One series relates to HeLa. The series is described as follows: ATP-based viability loss in HeLa cells – cell-based, CellTiter-Glo luminescence, cherry-pick samples, cytotoxicity control for MITF activator project, dose response (AID 540259). As to conditions: Homo sapiens. Format: functional.
In another series the target is Cytochrome P450 3A4 (Homo sapiens, UniProt P08684).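 Note: CYP3A4 tested as one member of a cytochrome P450 panel screen.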
The next series addresses Beta-galactosidase (Escherichia coli, UniProt Q8VNN2). The series is described as follows: PubChem AID 485352. Format: functional.
The target of series [1] is T1, Type-1 angiotensin II receptor (Homo sapiens, UniProt P30556).
T1 sequence (P30556 whole entry): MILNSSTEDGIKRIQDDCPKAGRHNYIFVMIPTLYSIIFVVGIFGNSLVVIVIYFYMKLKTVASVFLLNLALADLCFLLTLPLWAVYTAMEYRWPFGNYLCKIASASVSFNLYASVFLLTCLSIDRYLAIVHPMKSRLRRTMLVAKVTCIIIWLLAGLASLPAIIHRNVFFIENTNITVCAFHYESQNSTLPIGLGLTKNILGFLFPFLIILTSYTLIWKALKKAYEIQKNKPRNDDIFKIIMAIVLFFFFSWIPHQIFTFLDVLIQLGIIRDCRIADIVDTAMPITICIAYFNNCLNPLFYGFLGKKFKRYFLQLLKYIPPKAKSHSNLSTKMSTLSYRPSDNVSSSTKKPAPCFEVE
Kind of series: antagonism of angiotensin II type 1 receptor – cell-based, uHTS hits, selectivity assay for APJ receptor antagonist project, dose response (AID 463214).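 Note: antagonist potency against angiotensin II stimulated AT1 response.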 The series is classed as functional.

Another series concerns H4. Kind of series: Luminescence Cell-Based Dose Response HTS to Identify Activators of 5'UTR Stem-Loop Driven Prion Protein mRNA Translation in H4 Neuroglioblastoma Cells. [Related pubchem assays: 1829 (Project Summary), 1814 (Primary HTS)]. Format: functional. As to conditions: Homo sapiens.
The target of series [2] is T2, Heat shock factor protein 1 (Mus musculus, UniProt P38532).
T2 sequence (P38532 whole entry): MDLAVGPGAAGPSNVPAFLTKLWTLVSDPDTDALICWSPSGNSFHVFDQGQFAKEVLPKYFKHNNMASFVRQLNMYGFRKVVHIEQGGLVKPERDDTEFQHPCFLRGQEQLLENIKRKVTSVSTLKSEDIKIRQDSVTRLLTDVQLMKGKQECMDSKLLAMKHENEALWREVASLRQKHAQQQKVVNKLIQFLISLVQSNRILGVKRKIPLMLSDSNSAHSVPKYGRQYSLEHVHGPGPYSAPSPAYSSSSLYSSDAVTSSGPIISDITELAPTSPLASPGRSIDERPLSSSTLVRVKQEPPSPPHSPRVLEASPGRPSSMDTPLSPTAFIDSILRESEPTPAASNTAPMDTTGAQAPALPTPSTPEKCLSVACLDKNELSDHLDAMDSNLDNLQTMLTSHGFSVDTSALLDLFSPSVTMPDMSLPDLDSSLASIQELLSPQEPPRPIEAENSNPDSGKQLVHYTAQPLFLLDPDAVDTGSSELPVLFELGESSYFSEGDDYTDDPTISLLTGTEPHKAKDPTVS
Kind of series: decrease of HSF1-responsive luciferase luminescence – cell-based, NIH3T3, dose retest, confirmation (AID 2382).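 Note: NIH3T3 fibroblasts with HSF1-driven luciferase reporter stressed by proteasome inhibitor MG132; luminescence from HSF1-driven luciferase expression after 8 hours of MG132 stress.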 The series is classed as functional.

Series [3] has as its target Delta-type opioid receptor (Homo sapiens, UniProt P41143). The series is described as follows: Counterscreen for agonists of heterodimerization of the mu 1 (OPRM1) and delta 1 (OPRD1) opioid receptors: Luminescence-based cell-based high throughput dose response assay to identify agonists of OPRD1 homodimerization. [Related pubchem assays (depositor defined):AID504326, AID504355, AID504692, AID504904, AID504905]. The series is classed as functional.

In a further series the target is Mu-type opioid receptor (Homo sapiens, UniProt P35372). The series is described as follows: Counterscreen for agonists of heterodimerization of the mu 1 (OPRM1) and delta 1 (OPRD1) opioid receptors: Luminescence-based cell-based high throughput dose response assay to identify agonists of OPRM1 homodimerization. Format: functional.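 Note: U2OS cells expressing OPRM1 and beta-arrestin as split beta-galactosidase partners.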
The target in series [4] is 5-hydroxytryptamine receptor 5A (Homo sapiens, UniProt P47898). Kind of series: Counterscreen for agonists of OPRM1-OPRD1 heterodimerization: luminescence-based cell-based high throughput dose response assay to identify agonists of 5-hydroxytryptamine (serotonin) 5A receptor (HTR5A). [Related pubchem assays (depositor defined):AID504326, AID504355, AID504692, AID504904, AID504905]. Format: functional.

Series [5] deals with Beta-2 adrenergic receptor (Homo sapiens, UniProt P07550). Kind of series: ADRB2 activation measured by internalization – cell-based, FAP fluorogen, flow cytometry, cherry pick 1, dose response (AID 588763). Format: functional.
Series [6] addresses T3, Apoptotic protease-activating factor 1 (Homo sapiens, UniProt O14727).
T3 sequence (O14727 whole entry): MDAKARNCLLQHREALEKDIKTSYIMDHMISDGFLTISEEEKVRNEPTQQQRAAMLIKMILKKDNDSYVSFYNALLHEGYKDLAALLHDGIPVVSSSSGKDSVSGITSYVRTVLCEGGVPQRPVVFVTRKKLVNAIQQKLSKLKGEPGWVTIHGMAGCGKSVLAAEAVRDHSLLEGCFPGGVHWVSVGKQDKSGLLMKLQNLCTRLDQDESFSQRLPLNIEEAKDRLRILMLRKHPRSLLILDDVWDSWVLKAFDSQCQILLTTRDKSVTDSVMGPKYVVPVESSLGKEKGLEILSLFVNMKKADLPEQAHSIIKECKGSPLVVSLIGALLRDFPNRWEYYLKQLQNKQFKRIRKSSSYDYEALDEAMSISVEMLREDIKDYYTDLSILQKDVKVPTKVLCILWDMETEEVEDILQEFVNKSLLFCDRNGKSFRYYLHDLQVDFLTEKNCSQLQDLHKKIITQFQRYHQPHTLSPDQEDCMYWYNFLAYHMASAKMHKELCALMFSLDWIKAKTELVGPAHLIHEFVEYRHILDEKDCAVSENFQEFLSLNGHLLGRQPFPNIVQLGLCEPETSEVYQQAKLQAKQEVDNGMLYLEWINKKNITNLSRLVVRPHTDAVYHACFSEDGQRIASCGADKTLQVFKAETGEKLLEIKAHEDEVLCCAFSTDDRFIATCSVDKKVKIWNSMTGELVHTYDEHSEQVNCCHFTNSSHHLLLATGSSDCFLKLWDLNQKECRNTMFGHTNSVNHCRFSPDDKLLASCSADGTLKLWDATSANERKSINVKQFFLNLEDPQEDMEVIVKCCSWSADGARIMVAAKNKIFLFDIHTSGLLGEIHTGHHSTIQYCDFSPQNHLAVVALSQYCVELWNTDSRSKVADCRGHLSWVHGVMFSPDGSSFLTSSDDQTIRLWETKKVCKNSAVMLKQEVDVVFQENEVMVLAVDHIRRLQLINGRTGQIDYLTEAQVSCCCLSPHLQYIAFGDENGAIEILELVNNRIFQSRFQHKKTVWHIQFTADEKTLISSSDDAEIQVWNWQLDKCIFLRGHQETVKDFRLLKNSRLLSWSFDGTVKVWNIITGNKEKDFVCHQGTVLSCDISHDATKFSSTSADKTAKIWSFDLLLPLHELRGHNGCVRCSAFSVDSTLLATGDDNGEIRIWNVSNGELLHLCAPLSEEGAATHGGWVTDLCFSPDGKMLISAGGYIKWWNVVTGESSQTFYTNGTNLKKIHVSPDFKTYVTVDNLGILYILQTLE
The series is classed as functional.

In series [7] the target is 26S proteasome non-ATPase regulatory subunit 14 (Homo sapiens, UniProt O00487). The series is described as follows: inhibition of proteasome subunit RPN11 – biochemical, fluorescence polarization, uHTS hits, confirmation (AID 602368). The series is classed as functional.
Series [8] addresses 72 kDa type IV collagenase (Homo sapiens, UniProt P08253). Kind of series: Dose Response validation of uHTS RPN11 inhibitor hits using a MMP-2 Fluorescence assay. Format: functional.
In a further series the target is Prothrombin (Bos taurus, UniProt P00735). The series is described as follows: thrombin protease inhibitors – biochemical, fluorescence polarization, uHTS hits, dose response (AID 602369). The series is classed as functional.
Series [9] concerns the target T4, Mannose-6-phosphate isomerase (Homo sapiens, UniProt P34949).
T4 sequence (P34949 whole entry): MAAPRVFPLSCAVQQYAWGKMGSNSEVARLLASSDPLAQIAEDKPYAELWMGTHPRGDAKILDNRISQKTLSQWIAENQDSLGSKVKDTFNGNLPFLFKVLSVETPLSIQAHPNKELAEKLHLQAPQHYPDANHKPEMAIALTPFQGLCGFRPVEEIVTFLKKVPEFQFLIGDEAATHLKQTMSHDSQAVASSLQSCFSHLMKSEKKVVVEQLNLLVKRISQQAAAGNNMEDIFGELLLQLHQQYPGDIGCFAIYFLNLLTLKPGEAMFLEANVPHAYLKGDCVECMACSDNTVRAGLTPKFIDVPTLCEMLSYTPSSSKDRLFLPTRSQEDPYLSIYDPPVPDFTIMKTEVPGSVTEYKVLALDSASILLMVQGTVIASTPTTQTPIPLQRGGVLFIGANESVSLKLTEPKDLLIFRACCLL
The series is described as follows: MPI inhibition at elevated mannose 6-phosphate – biochemical, fluorescence intensity, high mannose 6-phosphate, primary screen (AID 1220).

Series [10] concerns the target Glucose-6-phosphate 1-dehydrogenase (Homo sapiens, UniProt P11413). Kind of series: inhibition of Homo sapiens G6PD, dose series – biochemical, fluorescence, selectivity assay for P. falciparum G6PD inhibitor project, dose response (AID 504792). Format: functional.
For the next series, the target named is T5, Protein Tat (Human immunodeficiency virus type 1 group M subtype B (isolate HXB2)(HIV-1), UniProt P04608).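 Note: tat binding to TAR RNA read out by fluorescence polarization.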
T5 sequence (P04608 whole entry): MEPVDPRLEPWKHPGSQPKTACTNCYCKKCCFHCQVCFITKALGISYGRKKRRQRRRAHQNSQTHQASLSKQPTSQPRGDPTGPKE
Format: functional.

Series [11] in a line: viability loss in THP-1 monocytes – THP-1 cells, cytotoxicity control for Vif-APOBEC3G degradation inhibitor project, dose response (AID 1117359). The following applies: THP-1. Format: functional.

SMILES strings stand for the structures. Active and inactive are the calls of the source.

Chain of Delta-type opioid receptor (P41143 whole entry): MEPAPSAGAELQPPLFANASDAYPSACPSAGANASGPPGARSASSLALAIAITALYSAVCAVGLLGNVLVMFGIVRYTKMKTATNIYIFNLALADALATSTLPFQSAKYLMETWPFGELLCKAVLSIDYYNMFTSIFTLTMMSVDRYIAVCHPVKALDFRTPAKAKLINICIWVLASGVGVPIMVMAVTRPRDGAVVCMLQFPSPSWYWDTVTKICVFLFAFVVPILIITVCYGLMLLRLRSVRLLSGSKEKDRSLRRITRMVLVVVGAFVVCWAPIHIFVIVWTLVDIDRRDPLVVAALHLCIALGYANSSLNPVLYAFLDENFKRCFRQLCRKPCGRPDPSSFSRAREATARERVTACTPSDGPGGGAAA
Chain of Mu-type opioid receptor (P35372 whole entry): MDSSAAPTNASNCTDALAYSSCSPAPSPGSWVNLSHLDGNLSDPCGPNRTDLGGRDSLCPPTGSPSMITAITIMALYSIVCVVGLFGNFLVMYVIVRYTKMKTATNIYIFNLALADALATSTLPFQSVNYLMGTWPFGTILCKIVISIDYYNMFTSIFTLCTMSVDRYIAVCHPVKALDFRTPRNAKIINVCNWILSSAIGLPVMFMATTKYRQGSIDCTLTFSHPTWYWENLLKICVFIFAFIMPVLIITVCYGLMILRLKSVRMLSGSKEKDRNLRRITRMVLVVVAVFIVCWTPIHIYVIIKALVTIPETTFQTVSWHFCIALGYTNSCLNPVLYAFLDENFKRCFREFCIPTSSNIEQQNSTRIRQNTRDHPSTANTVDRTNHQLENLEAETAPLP
Chain of 5-hydroxytryptamine receptor 5A (P47898 whole entry): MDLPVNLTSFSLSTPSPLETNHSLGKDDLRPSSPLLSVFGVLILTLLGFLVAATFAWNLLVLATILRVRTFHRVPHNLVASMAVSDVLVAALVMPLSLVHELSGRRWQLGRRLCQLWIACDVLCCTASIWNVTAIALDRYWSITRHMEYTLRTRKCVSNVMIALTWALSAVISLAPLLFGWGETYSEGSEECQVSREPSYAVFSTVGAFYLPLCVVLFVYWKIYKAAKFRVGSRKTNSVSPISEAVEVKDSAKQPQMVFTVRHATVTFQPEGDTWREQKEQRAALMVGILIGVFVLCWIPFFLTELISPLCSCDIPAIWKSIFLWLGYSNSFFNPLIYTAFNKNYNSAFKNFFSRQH
Chain of Beta-galactosidase (Q8VNN2 whole entry): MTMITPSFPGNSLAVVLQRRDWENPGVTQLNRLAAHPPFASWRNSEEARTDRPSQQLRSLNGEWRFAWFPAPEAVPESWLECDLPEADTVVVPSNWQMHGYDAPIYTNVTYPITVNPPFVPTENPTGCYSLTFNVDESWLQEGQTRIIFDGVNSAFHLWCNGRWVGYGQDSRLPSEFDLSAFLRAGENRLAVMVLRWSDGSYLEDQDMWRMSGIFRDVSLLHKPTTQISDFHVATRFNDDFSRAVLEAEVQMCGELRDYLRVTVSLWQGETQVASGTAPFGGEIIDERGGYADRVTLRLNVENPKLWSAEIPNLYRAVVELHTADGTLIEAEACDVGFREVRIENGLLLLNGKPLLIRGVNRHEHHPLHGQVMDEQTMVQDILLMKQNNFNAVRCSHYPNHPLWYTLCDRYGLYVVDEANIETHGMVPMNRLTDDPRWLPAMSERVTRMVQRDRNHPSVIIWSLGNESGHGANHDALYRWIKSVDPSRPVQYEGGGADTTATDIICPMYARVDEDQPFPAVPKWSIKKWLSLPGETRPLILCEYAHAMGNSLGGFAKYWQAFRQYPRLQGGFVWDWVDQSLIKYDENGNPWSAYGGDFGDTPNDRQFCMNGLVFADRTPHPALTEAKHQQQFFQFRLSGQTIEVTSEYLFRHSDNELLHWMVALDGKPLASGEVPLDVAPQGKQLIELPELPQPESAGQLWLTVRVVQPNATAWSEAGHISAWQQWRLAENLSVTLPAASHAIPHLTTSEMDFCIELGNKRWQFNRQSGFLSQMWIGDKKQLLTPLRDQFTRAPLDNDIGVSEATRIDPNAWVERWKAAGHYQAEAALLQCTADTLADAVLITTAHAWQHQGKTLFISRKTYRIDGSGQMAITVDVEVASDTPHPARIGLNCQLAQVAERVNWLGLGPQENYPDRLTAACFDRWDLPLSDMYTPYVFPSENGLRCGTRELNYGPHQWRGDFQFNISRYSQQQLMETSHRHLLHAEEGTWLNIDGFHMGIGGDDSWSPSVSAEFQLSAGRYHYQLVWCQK
Chain of Beta-2 adrenergic receptor (P07550 whole entry): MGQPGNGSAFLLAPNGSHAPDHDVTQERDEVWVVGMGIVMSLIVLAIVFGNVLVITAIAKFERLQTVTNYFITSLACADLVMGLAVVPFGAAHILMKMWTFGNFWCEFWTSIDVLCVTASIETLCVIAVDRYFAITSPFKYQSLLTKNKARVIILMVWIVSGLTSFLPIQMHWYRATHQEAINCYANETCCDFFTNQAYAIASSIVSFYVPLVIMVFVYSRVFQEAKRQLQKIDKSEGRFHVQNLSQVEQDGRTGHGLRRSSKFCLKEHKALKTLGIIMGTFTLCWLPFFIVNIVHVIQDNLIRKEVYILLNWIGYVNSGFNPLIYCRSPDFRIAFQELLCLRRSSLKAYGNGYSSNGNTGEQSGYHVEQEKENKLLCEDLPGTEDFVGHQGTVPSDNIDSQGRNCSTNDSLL
Chain of 26S proteasome non-ATPase regulatory subunit 14 (O00487 whole entry): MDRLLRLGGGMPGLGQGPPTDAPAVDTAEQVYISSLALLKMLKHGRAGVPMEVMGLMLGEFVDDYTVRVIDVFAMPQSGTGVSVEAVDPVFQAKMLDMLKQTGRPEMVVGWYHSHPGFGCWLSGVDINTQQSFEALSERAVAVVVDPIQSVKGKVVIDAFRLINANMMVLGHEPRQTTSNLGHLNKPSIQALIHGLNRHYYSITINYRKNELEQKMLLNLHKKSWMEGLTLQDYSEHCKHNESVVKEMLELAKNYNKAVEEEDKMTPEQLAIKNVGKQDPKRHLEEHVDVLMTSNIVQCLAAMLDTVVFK
Chain of Cytochrome P450 3A4 (P08684 whole entry): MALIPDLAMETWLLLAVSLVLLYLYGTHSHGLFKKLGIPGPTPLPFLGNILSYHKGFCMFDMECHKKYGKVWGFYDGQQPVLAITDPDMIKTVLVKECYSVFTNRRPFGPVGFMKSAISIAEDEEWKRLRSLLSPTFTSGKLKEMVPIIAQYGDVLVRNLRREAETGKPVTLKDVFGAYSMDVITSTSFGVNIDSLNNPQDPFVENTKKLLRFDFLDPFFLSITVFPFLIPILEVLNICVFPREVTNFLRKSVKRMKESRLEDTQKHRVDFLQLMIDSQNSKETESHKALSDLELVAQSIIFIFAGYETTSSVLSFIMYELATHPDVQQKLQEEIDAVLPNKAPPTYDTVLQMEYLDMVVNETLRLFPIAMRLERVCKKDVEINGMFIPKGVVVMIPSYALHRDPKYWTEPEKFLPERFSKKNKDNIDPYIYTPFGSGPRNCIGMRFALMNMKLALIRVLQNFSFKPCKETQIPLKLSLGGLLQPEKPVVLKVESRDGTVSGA
Chain of Glucose-6-phosphate 1-dehydrogenase (P11413 whole entry): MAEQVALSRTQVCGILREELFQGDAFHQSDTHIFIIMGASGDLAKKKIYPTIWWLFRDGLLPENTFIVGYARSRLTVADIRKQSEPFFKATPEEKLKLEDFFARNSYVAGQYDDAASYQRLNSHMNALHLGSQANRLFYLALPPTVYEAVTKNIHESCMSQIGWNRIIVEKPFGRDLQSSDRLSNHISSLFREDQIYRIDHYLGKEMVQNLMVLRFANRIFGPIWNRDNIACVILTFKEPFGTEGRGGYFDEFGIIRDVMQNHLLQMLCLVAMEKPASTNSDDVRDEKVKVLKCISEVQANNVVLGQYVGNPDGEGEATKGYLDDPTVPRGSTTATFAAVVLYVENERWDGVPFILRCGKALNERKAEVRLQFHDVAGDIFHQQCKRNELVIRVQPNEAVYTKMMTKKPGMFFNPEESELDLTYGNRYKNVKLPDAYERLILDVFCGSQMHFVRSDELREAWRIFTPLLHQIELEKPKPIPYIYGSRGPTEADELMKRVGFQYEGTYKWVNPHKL
Chain of 72 kDa type IV collagenase (P08253 whole entry): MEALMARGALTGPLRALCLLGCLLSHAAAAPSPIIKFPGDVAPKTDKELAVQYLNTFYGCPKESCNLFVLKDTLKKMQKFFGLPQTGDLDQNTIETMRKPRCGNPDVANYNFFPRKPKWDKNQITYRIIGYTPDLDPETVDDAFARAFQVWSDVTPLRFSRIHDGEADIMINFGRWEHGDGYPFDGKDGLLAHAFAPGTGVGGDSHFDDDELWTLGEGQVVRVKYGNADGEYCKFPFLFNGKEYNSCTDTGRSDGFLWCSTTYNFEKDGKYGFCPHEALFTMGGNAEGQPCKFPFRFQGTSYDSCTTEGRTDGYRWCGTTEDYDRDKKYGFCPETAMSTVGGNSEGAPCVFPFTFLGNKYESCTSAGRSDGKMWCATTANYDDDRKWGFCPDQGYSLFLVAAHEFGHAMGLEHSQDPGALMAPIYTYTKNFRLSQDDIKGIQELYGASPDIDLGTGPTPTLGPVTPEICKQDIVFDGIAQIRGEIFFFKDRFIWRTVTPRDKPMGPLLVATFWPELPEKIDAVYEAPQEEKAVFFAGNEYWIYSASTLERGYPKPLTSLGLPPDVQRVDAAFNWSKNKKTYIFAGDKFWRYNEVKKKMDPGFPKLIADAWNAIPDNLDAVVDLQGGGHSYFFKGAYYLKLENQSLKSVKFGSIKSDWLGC

For the compound `CSc1ccc(CNc2ccc(Cl)cc2)cc1`, the half-maximal activity concentration (AC50) in the series with HeLa was 56.4 µM (active); on Cytochrome P450 3A4, “inconclusive”.
Regarding `O=C1N=c2ccc(Br)cc2=C1Nc1ccc(-c2nnc3n2CCCCC3)cc1`, the EC50 at Beta-galactosidase is > 40 µM (inactive). In addition, the half-inhibitory concentration (IC50) in series [1] was 29.4 µM (not active).
As for `Cc1cc(/C=C2/C(=O)NN(c3ccccc3)C2=O)c(C)n1-c1ccc(O)cc1`, the EC50 in the series with H4 was < 0.1 µM (active); in series [2], 4.81 µM (active); in [3], 9.3 µM (active); on Mu-type opioid receptor, > 92.5 µM (inactive); in series [4], > 92.5 µM (inactive).
On to `Cc1nn2cc(-c3ccc(Cl)cc3)cnc2c1Cl`, for which, in the series with HeLa, the AC50 was 108 µM (active).
Regarding `c1ccc(CSc2nnnn2-c2cccc3ccccc23)nc1`, the EC50 in series [5] is 1.22 µM (active).
On to `Cc1cc(N2CCN(c3ccc([N+](=O)[O-])c4cccnc34)CC2)c2ccccc2n1`, for which the IC50 was 34 µM (active) in [6], 27.7 µM (active) in series [7], > 100 µM (inactive) in [8] and 27.7 µM (active) at Prothrombin. In addition, the EC50 (in [3]; on Mu-type opioid receptor; in series [4]) was > 92.5 µM (inactive) each time.
With `CCOc1ccc(CNc2ccc(N3CCCC3)cc2)cc1`, the concentration for half-maximal inhibition (IC50) in series [9] was > 50 µM (not active); in series [10], > 80 µM (inactive); on Protein Tat, 75.3 µM (inconclusive). Further, the half-maximal cytotoxic concentration (CC50) in series [11] was > 40 µM (active).
As to `Cc1ccc(N=C2C(=O)Nc3ccc(Br)cc32)cc1`, the EC50 on Beta-galactosidase was > 40 µM (inactive). The IC50 in series [1] was 7.76 µM (active).
As to `COc1ccc([C@H](C)NC[C@H](O)c2ccc(O)c(NC=O)c2)cc1`, in series [5], the concentration giving a half-maximal response (EC50) was 0.0108 µM (active).
Turning to `CC1[C@H]2Cc3ccc(O)cc3[C@]1(C)CCN2C` (stereo partly drawn), the EC50 (in [3]; at Mu-type opioid receptor; in [4]) was > 92.4 µM (inactive) in each case.
